{"source": "patent US20150306110A1", "about": "“COMPOSITIONS AND METHODS FOR TREATMENT OF INFLAMMATION AND HYPERKERATOTIC LESIONS” (Novelix Pharmaceuticals, Inc., priority 2008, published 2015)", "key": {"MDA-MB-468": {"tested_on": "MDA-MB-468", "assay": "Cell growth/survival, MDA-MB-468 breast cancer cells", "format": "cell-based", "details": "Homo sapiens, TP53 mut.", "experimental": "(§1) Melanoma cell lines used in this study were maintained in Dulbecco's modified Eagle medium (DMEM with 4500 mg/l glucose) supplemented with 10% FCS from Gibco BRL (Life Technologies, Berlin, Germany). The canine mastocytoma cell line C2 (DeVinney et al, Am. J. Respir. Cell Mol. Biol. 3:413-20, 1990) was used in this study, along with additional human cell lines: RD-ES and TC-71 (human Ewing's sarcoma), SAOS2 (human osteosarcoma), HT-1080 (human fibrosarcoma), Caco-2 (human colon adenocarcinoma), A549 (human lung adenocarcinoma), Hep-G2 and Hep-3B (human hepatocellular carcinoma), SK-N-DZ and SK-N-FI (human embryonal neuroblastoma), HTB9 (human bladder cancer), MDA-468 and MCF-7 (human breast cancer) and SW872 liposarcoma. All breast cancer cells were routinely cultured in DMEM/F-12 or in DMEM alone supplemented with 10% FCS at 37° C. in a humidified 5% CO2 atmosphere. RD-ES and TC-71 sarcoma cell lines were maintained in RPMI 1640 (Biochrom KG, Berlin, Germany) containing 10% FCS at 37° C. in a humidified 5% CO2 atmosphere. […]\n(§2) Briefly, cells were maintained in standard medium, harvested, and plated at equal densities (750,000 cells in 5 cm tissue culture dishes). […] For the assessment of cell growth, the number of surviving cells was determined using an automated cell counter from Beckman Coulter GmbH (Krefeld, Germany). […]"}, "Caco-2": {"tested_on": "Caco-2", "assay": "Cell growth/survival, Caco-2 colon adenocarcinoma cells", "format": "cell-based", "details": "Homo sapiens, TP53 neg.", "experimental": "as §1, §2"}, "SW872 (liposarcoma)": {"tested_on": "SW872 (liposarcoma)", "assay": "Cell growth/survival, SW872 liposarcoma cells", "format": "cell-based", "details": "Homo sapiens, TP53 mut.", "experimental": "as §1, §2"}, "human skin": {"tested_on": "human skin", "assay": "Tolerability of topical NVX-207 on human skin", "format": "in vivo", "details": "1% topical solution (200 μl, 20% ethanol, 20% Tween 80 in water), human arm, once a day for one week; checked up to 6 months after", "experimental": "A 1% topical solution of NVX-207 (200 μl total volume in 20% ethanol, 20% Tween® 80 in water) was topically applied to an area of skin on a human arm once a day for one week. A control solution (20% ethanol/20% Tween® 80 and 80% water) was applied to an area of skin adjacent to the area to which the NVX-207 solution was applied, also for one week."}, "A549": {"tested_on": "A549", "assay": "Cell growth/survival, A549 lung adenocarcinoma cells", "format": "cell-based", "details": "Homo sapiens, TP53 neg.", "experimental": "as §1, §2"}, "human keratinocytes": {"tested_on": "human keratinocytes", "assay": "Survival / anti-proliferative activity in keratinocytes", "format": "cell-based", "details": "for Mean survival, percentage of control-treated cells: n=3", "experimental": "All cells were treated with 2.5 μM NVX-207. Percentage (means±S.E., n=3) of control-treated cells are given. […] Mean survival in NVX-207 treated fibroblasts at 80% confluency was 92% (S.E.=3.8) versus 3.8% mean survival (S.E.=0.4) at 30% confluency. […] HUVECs, keratinocytes and fibroblast cells were obtained from Lonza GmbH (Wuppertal, Germany) and cultivated according to the manufacturer's instructions.\nHuman umbilical vein endothelial cells (HUVEC), keratinocytes and fibroblast cells were obtained from Lonza GmbH (Wuppertal, Germany) and cultivated according to the manufacturer's instructions. […] The IC50 value of betulinic acid in human keratinocytes was recently determined to be ˜5.0 μg/ml (Tino Galgon al., Exp Dermatol. 14:736-43, 2005), while the IC50 of NVX-207 is ˜0.7 µg/ml. […] Mean survival in NVX-207 treated fibroblasts at 80% confluency was 92% (S.E.=3.8) versus 3.8% mean survival (S.E.=0.4) at 30% confluency. […] Under normal physiological conditions, the endothelium, as well as skin fibroblasts and skin keratinocytes, show relatively low turn-over and limited cell divisions to maintain tissue integrity.\nKeratinocytes at high confluence (e.g., 80%) mimic normal physiological conditions in which these cells divide more slowly (fewer cell divisions per unit of time). In contrast, keratinocytes in psoriatic lesions divide more rapidly, as do keratinocytes cultured at lower confluency (e.g., 30%). Thus, the 30% confluency conditions were considered a model for psoriasis whereas the behavior of 80% confluent cells more closely reflects the conditions observed in normal skin."}, "Osteosarcoma-D17": {"tested_on": "Osteosarcoma-D17", "assay": "Cell growth/survival, canine osteosarcoma D17 cells", "format": "cell-based", "details": "Canis lupus familiaris"}, "Hep-3B": {"tested_on": "Hep-3B", "assay": "Cell growth/survival, Hep-3B hepatocellular carcinoma cells", "format": "cell-based", "details": "Homo sapiens, Hep3B, TP53 null", "experimental": "as §1, §2"}, "SK-N-DZ": {"tested_on": "SK-N-DZ", "assay": "Cell growth/survival, SK-N-DZ neuronal cancer cells", "format": "cell-based", "details": "Homo sapiens, TP53 mut.", "experimental": "as §1, §2"}, "MCF-7": {"tested_on": "MCF-7", "assay": "Cell growth/survival, MCF-7 breast cancer cells", "format": "cell-based", "details": "Homo sapiens, MCF7, TP53 neg.", "experimental": "as §1, §2"}, "[1]": {"tested_on": "canine mammary carcinoma, scent gland carcinoma, soft tissue sarcoma", "assay": "Activity of NVX-207 in additional canine cancer patients (summary)", "details": "dog, in vivo", "description": "Overall survival time is given in months."}, "518A2": {"tested_on": "518A2", "assay": "Cell growth/survival, 518A2 melanoma cells", "format": "cell-based", "details": "Homo sapiens, TP53 mut.", "experimental": "as §1, §2"}, "Melanoma-TLM1": {"tested_on": "Melanoma-TLM1", "assay": "Cell growth/survival, canine melanoma TLM1 cells", "format": "cell-based", "details": "Canis lupus familiaris", "experimental": "as §1, §2"}}, "note": "pIC50: −log10 of the molar value.", "data": [{"smiles": "C=C(C)[C@@H]1CC[C@]2(C(=O)OCC(N)(CO)CO)CC[C@]3(C)[C@H](CC[C@@H]4[C@@]5(C)CC[C@H](OC(C)=O)C(C)(C)[C@@H]5CC[C@]43C)[C@@H]12", "note": "[NVX-207, 3-O-acetylbetulinic acid-2-amino-3-hydroxy-2-hydroxymethylpropyl ester]", "values": [{"measurement": "pIC50", "setting": "MDA-MB-468", "result": 5.44}, {"measurement": "pIC50", "setting": "Caco-2", "result": 5.57}, {"measurement": "pIC50", "setting": "SW872 (liposarcoma)", "result": 5.74}, {"measurement": "Undesirable (toxic) effects on treated skin", "setting": "human skin", "result": "no undesirable (toxic) effects"}, {"measurement": "pIC50", "setting": "A549", "result": 5.60}, {"measurement": "IC50", "setting": "human keratinocytes; Homo sapiens, Keratinocyte", "result": "~0.7", "unit": "µg/mL"}, {"measurement": "IC50 lower compared to betulinic acid on a molar basis", "setting": "human keratinocytes; human keratinocytes", "result": "~10", "unit": "fold"}, {"measurement": "More active against proliferating cells (30% vs 80% confluency)", "setting": "human keratinocytes; keratinocytes, 2.5 μM", "result": "~6", "unit": "fold"}, {"measurement": "Mean survival, percentage of control-treated cells", "setting": "human keratinocytes; keratinocytes, 30% confluency, 2.5 μM", "result": 17, "unit": "%"}, {"measurement": "Mean survival, percentage of control-treated cells", "setting": "human keratinocytes; keratinocytes, 80% confluency, 2.5 μM", "result": 92.7, "unit": "%"}, {"measurement": "pIC50", "setting": "Osteosarcoma-D17", "result": 5.42}, {"measurement": "pIC50", "setting": "Hep-3B", "result": 5.42}, {"measurement": "pIC50", "setting": "SK-N-DZ", "result": 5.57}, {"measurement": "pIC50", "setting": "MCF-7", "result": 5.40}, {"measurement": "Inflammation during treatment", "setting": "[1]", "result": "absence of inflammation"}, {"measurement": "pIC50", "setting": "518A2", "result": 5.59}, {"measurement": "pIC50", "setting": "Melanoma-TLM1", "result": 5.42}]}]}
